Test results from US20020038028A1, “7-Hetero-bicyclo[2.2.1]-heptanes” (priority 1998, published 2002).

Compound | melting point [°C]
Cl.O=C(O)c1ccc(C2CC3CCC2N3)cc1 (centres unmarked) | 261.5 to 264.5
Cl.N=C(N)c1ccc(C2CC3CCC2N3)cc1 (centres unmarked) | 198.5 to 201
CSc1ccc(C2CC3CCC2N3)cc1.Cl (centres unmarked) | 216.5 to 218
Cl.Oc1ccc(C2CC3CCC2N3)cc1 (centres unmarked) | 242.5 to 244
COC(=O)c1ccc(C2CC3CCC2N3)cc1.Cl (centres unmarked) | 235 to 236
